The record followed here is patent US20080119412A1, “Polypeptides for Modulating Binding of Trp Channel Proteins and Trp- Associated Proteins” (NoNO Inc., priority 2003, published 2008).

The target in assay [1] is T1, ZO-1 d2 (Homo sapiens, UniProt Q07157, DEL264-264).
T1 construct: made in house; host or cells: E. coli (DH5alpha, BL21 or JM109)
T1 sequence (Q07157 with tags, fused parts or gaps DEL264-264): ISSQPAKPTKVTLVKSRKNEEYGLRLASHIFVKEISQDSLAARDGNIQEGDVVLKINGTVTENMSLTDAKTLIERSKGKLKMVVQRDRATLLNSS
Description: G assay, peptide binding to GST-PDZ fusion (Table 11). To be noted: Table 11, titrations or binding assays.
Description: The binding of labeled PL peptide (e.g., as listed in TABLE 2 and TABLE 4) to this surface is then measured. In a preferred embodiment, the assay is carried out as follows:
(1) A PDZ-domain polypeptide is bound to a surface, e.g. a protein binding surface. In a preferred embodiment, a GST/PDZ fusion protein containing one or more PDZ domains is bound to a polystyrene 96-well plate. […] In one embodiment, the GST/PDZ fusion protein is bound via an anti-GST antibody that is coated onto the 96-well plate. Adequate binding to the plate can be achieved when:
(2) Biotinylated PL peptides are allowed to react with the surface by addition of 50 μl per well of 20 μM solution of the biotinylated peptide in PBS/BSA for 10 minutes at 4° C., followed by an additional 20 minute incubation at 25° C. The plate is washed 3 times with ice cold PBS.
(3) The binding of the biotinylated peptide to the GST/PDZ fusion protein surface can be detected using a variety of methods and detectors known to one of skill in the art. In one embodiment, 100 μl per well of 0.5 μg/ml streptavidin-horseradish peroxidase (HRP) conjugate dissolved in BSA/PBS is added and allowed to react for 20 minutes at 4° C. The plate is then washed 5 times with 50 mM Tris pH 8.0 containing 0.2% Tween 20, and developed by addition of 100 μl per well of HRP-substrate solution (TMB, Dako) for 20 minutes at room temperature (RT). The reaction of the HRP and its substrate is terminated by addition of 100 μl per well of 1 M sulfuric acid, and the optical density (O.D.) of each well of the plate is read at 450 um.
(4) Specific binding of a PL peptide and a PDZ domain polypeptide is determined by comparing the signal from the well(s) in which the PL peptide and PDZ domain polypeptide are combined, with the background signal(s). […] Typically a specific or selective reaction will be at least twice background signal, more typically more than 5 times background, and most typically 10 or more times the background signal. […] Correspondingly, a statistical test (e.g. a T-test) comparing repeated measurements of the signal with -repeated measurements of the background will result in a p-value <0.05, more typically a p-value <0.01, and most typically a p-value <0.001 or less. As noted, in an embodiment of the G assay, the signal from binding of a given PL peptide to immobilized (surface bound) GST polypeptide alone is one suitable negative control (sometimes referred to as B1). Because all measurement are done in multiples (i.e. at least duplicate) the arithmetic mean (or, equivalently, average.) of several measurements is used in determining the binding, and the standard error of the mean is used in determining the probable error in the measurement of the binding. The standard error of the mean of N measurements equals the square root of the following: the sum of the squares of the difference between each measurement and the mean, divided by the product of (N) and (N−1). Thus, in one embodiment, specific binding of the PDZ protein to the platebound peptide is determined by comparing the mean signal (“mean S”) and standard error of the signal (“SE”) for a particular PL-PDZ combination with the mean B1.

For assay [2], the target named is T1, ZO-1 d2. Nature of the assay: G3 assay titration, GST-PDZ fusion / biotinylated peptide. The format is binding. The protocol:
(§1) The G3 assay is identical to the G0 assay with the following exceptions. The peptides are typically present at 0.1 μM rather than 20 μM. The peptides are also pre-incubated with the HRP-streptavidin prior to adding to the assay plate. In the G0 assay, free peptide is incubated with the PDZ proteins prior to the addition of the HRP-streptavidin. Thus, for the G0 assay one can lose signal if the bound peptide dissociates from the PDZ protein prior to the addition of the HRP-streptavidin. In the G3 modified assay the HRP-streptavidin/peptide complex is added to the plate in one step, thus increasing the likelihood that all the bound peptide will be bound to HRP-streptavidin. The G3 modified assay increases the chance of observing weak interactions.
(§2) This example describes assays to identify binding between TRPM7 and PDZ domains. GST-PDZ fusions are produced that each contain an entire PDZ domain (or multiple PDZ domains), the collection encompassing approximately 90% of all PDZ domains identified in the human genome. (See Table 5 and Section V (PDZ Proteins and PL Protein Interactions Disclosure). Biotinylated peptide corresponding to 11 residues of Tat coupled to the C-terminal 9 amino acids of TRPM7 ([…]; SEQ ID NO:258) is synthesized and purified by HPLC.
(§3) • Nunc MaxiSorp 96 well Immuno-plate, Nunc • PBS pH 7.4 (phosphate buffered saline, 8 g NaCl, 0.29 g KCl, 1.44 g Na2HPO4, 0.24 g KH2PO4, add H2O to 1 liter and pH 7.4; 0.2 μm filter) • Assay Buffer: 2% BSA in PBS (20 g of bovine serum albumin per liter PBS, fraction V, ICN Biomedicals, cat#IC15142983 • Goat anti-GST polyclonal Ab, stock 5 mg/ml, stored at 4° C., Amersham Pharmacia cat#27-4577-01 • Dilute 1:1000 in PBS, final concentration 5 μg/ml. • HRP-Streptavidin, 2.5 mg/2 ml stock stored at 4° C., Zymed cat#43-4323, dilute 1:2000 into Assay buffer, final concentration of […] • Wash Buffer, PBS • Biotinylated peptides (HPLC purified, stock solution stored in −20° C. freezer) • GST-PRISM proteins (stock stored at −80° C., after 1st thaw store in −10° C. freezer) • TMB (3,3′,5,5′, teramethylbensidine), tablets, Sigma cat.#T5525 • Per plate, dissolve 1 tablet in 1 ml DMSO, add 9 ml Citrate/Phosphate buffer pH 5.4 and 2 μL H2O2 • 0.1 M H2SO4, Sigma cat.#S1526 • 12-w multichannel pipettor & tips • 50 ml reagent reservoirs, Costar#4870 • 50, 15 ml polypropylene conical tubes • Costar Transtar 96 Costar #7605 • Transtar 96 Cartridge Costar #7610 • Molecular Devices microplate reader (450 & 650 nm filters) with SoftMax Pro software *When using reagents stored at or 4° C. or −20° C., remove & keep on ice
(§4) • 1. Coat plate with 100 μl of 5 μg/ml anti-GST, overnight at 4° C. • 2. Dump contents of plate & out tap dry on paper towels • 3. Block with 200 μl Assay Buffer for 2 hrs at room temperature • 4. Prepare proteins at 5 μg/ml in Assay Buffer • 5. Wash 3× with cold PBS (4° C.), avoiding letting the plates dry out • 6. Add proteins at 50 μl per well, incubate 1 to 2 hrs at 4° C. • 7. Prepare peptides to desired concentration in Assay Buffer • 8. Wash 3× with cold PBS (4° C.), avoiding letting the plates dry out • 9. Add HRP-Streptavidin/peptide complex [prepared by incubating for 20 minutes at room temperature HRP-Streptavidin (1:2000) with the desired biotin-peptide concentration for 20 minutes at room temperature] at 50 μl per well on ice • 10. Place at room temperature for exactly 30 minutes • 11. Promptly wash 5× with PBS at room temperature • 12. Add 100 μl/well TMB substrate (write time on plate) • 13. Incubate in dark at room temperature for a maximum of 30 minutes • 14. Read plate at 25 minutes (650 nm), optional • 15. Stop reaction with 100 μl of 0.18 M H2SO4, 30 minutes after adding TMB • Take last reading at 450 nm soon after stopping reaction
(§5) The G3 assay was performed using 0.1 μM peptide representing 11 amino acids of Tat fused to the final 9 amino acids of TRPM7 ([…]; SEQ ID NO:258). […]

The target of another assay is T2, INADL d3 (Homo sapiens, UniProt Q8NI35).
T2 construct: made in house; host or cells: E. coli (DH5alpha, BL21 or JM109)
T2 sequence (Q8NI35 with tags, fused parts or gaps): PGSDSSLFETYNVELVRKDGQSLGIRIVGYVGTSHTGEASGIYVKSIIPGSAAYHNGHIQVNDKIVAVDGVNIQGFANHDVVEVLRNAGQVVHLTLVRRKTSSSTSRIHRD
The assay is described as above. The format is binding. The procedure: as §1, §2, §3, §4, §5

Residues, ends and D or L forms follow the SMILES beside them. *: point of attachment. Biotin = O=C1N[C@H]2[C@H](CS[C@H]2CCCCC(=O)*)N1 Some results are limits rather than exact numbers.

Regarding `CC[C@H](C)[C@H](NC(=O)[C@H](CC(C)C)NC(=O)[C@H](CCCNC(=N)N)NC(=O)[C@H](CCCNC(=N)N)NC(=O)[C@H](CCC(=O)O)NC(=O)[C@H](CC(=O)O)NC(=O)[C@H](CCC(N)=O)NC(=O)[C@H](CCCNC(=N)N)NC(=O)[C@H](CCCNC(=N)N)NC(=O)[C@H](CCCNC(=N)N)NC(=O)[C@H](CCC(N)=O)NC(=O)[C@H](CCCNC(=N)N)NC(=O)[C@H](CCCNC(=N)N)NC(=O)[C@H](CCCCN)NC(=O)[C@H](CCCCN)NC(=O)[C@H](CCCNC(=N)N)NC(=O)CNC(=O)[C@H](Cc1ccc(O)cc1)NC(=O)CCCC[C@@H]1SC[C@@H]2NC(=O)N[C@@H]21)C(=O)N[C@H](C(=O)N[C@@H](CC(C)C)C(=O)O)C(C)C` [Peptide 1842] (Biotin-YGRKKRRQRRRQDERRLIVL-OH), the PDZ domain bound entry on ZO-1 d2 [1] is recorded as “ZO-1 D2”. Moreover, the values for the concentration giving a half-maximal response (EC50) on ZO-1 d2 [2] and at INADL d3 were 35 nM and less than 1000 nM, respectively. Besides, the “ODmax (450 nm)” value is 2.30 at ZO-1 d2 [2] (Table 10, titration of peptides with ZO-1 d2) and 1.90 at INADL d3 (Table 10, titration of peptides with INADL d3).

Turning to `CC[C@H](C)[C@H](NC(=O)[C@@H](NC(=O)[C@H](CCCNC(=N)N)NC(=O)[C@H](CC(=O)O)NC(=O)[C@H](CO)NC(=O)[C@H](CCCNC(=N)N)NC(=O)[C@H](C)NC(=O)[C@H](CCCNC(=N)N)NC(=O)[C@H](CCCNC(=N)N)NC(=O)[C@H](CCCNC(=N)N)NC(=O)[C@H](CCC(N)=O)NC(=O)[C@H](CCCNC(=N)N)NC(=O)[C@H](CCCNC(=N)N)NC(=O)[C@H](CCCCN)NC(=O)[C@H](CCCCN)NC(=O)[C@H](CCCNC(=N)N)NC(=O)CNC(=O)[C@H](Cc1ccc(O)cc1)NC(=O)CCCC[C@@H]1SC[C@@H]2NC(=O)N[C@@H]21)[C@@H](C)O)C(=O)N[C@H](C(=O)N[C@@H](C)C(=O)O)[C@@H](C)CC` [Peptide 1830] (Biotin-YGRKKRRQRRRARSDRTIIA-OH), the EC50 is less than 20 nM on ZO-1 d2 [2] and less than 2000 nM at INADL d3.

For `CC(C)C[C@H](NC(=O)[C@H](CCCNC(=N)N)NC(=O)[C@@H](NC(=O)CNC(=O)[C@H](CCCNC(=N)N)NC(=O)[C@H](C)NC(=O)[C@H](CCCNC(=N)N)NC(=O)[C@H](CCCNC(=N)N)NC(=O)[C@H](CCCNC(=N)N)NC(=O)[C@H](CCC(N)=O)NC(=O)[C@H](CCCNC(=N)N)NC(=O)[C@H](CCCNC(=N)N)NC(=O)[C@H](CCCCN)NC(=O)[C@H](CCCCN)NC(=O)[C@H](CCCNC(=N)N)NC(=O)CNC(=O)[C@H](Cc1ccc(O)cc1)NC(=O)CCCC[C@@H]1SC[C@@H]2NC(=O)N[C@@H]21)[C@@H](C)O)C(=O)N[C@H](C(=O)N[C@@H](Cc1c[nH]c2ccccc12)C(=O)N[C@H](C(=O)O)C(C)C)C(C)C` [Peptide 1844] (Biotin-YGRKKRRQRRRARGTRLVWV-OH), the EC50 on ZO-1 d2 [2] and at INADL d3 was less than 20 nM each time.

Turning to `CC[C@H](C)[C@H](NC(=O)[C@@H](NC(=O)[C@H](CCCNC(=N)N)NC(=O)[C@H](CC(=O)O)NC(=O)CNC(=O)[C@H](CCCNC(=N)N)NC(=O)[C@H](C)NC(=O)[C@H](CCCNC(=N)N)NC(=O)[C@H](CCCNC(=N)N)NC(=O)[C@H](CCCNC(=N)N)NC(=O)[C@H](CCC(N)=O)NC(=O)[C@H](CCCNC(=N)N)NC(=O)[C@H](CCCNC(=N)N)NC(=O)[C@H](CCCCN)NC(=O)[C@H](CCCCN)NC(=O)[C@H](CCCNC(=N)N)NC(=O)CNC(=O)[C@H](Cc1ccc(O)cc1)NC(=O)CCCC[C@@H]1SC[C@@H]2NC(=O)N[C@@H]21)[C@@H](C)O)C(=O)N[C@H](C(=O)N[C@@H](Cc1ccc(O)cc1)C(=O)O)[C@@H](C)CC` [Peptide 1848] (Biotin-YGRKKRRQRRRARGDRTIIY-OH), the EC50 was less than 20 nM at ZO-1 d2 [2] and less than 2000 nM at INADL d3.

For `CC[C@H](C)[C@H](NC(=O)[C@H](Cc1ccc(O)cc1)NC(=O)[C@H](CCCCN)NC(=O)[C@H](CCCNC(=N)N)NC(=O)[C@H](CC(=O)O)NC(=O)CNC(=O)[C@H](CCCNC(=N)N)NC(=O)[C@H](C)NC(=O)[C@H](CCCNC(=N)N)NC(=O)[C@H](CCCNC(=N)N)NC(=O)[C@H](CCCNC(=N)N)NC(=O)[C@H](CCC(N)=O)NC(=O)[C@H](CCCNC(=N)N)NC(=O)[C@H](CCCNC(=N)N)NC(=O)[C@H](CCCCN)NC(=O)[C@H](CCCCN)NC(=O)[C@H](CCCNC(=N)N)NC(=O)CNC(=O)[C@H](Cc1ccc(O)cc1)NC(=O)CCCC[C@@H]1SC[C@@H]2NC(=O)N[C@@H]21)C(=O)N[C@H](C(=O)O)C(C)C` [Peptide 1838] (Biotin-YGRKKRRQRRRARGDRKYIV-OH), the concentration for a half-maximal effect (EC50) at ZO-1 d2 [2] and at INADL d3 was less than 100 nM each time.

On to `CC[C@H](C)[C@H](NC(=O)[C@H](CCCNC(=N)N)NC(=O)[C@H](Cc1ccc(O)cc1)NC(=O)[C@H](CCCNC(=N)N)NC(=O)[C@H](CC(=O)O)NC(=O)CNC(=O)[C@H](CCCNC(=N)N)NC(=O)[C@H](C)NC(=O)[C@H](CCCNC(=N)N)NC(=O)[C@H](CCCNC(=N)N)NC(=O)[C@H](CCCNC(=N)N)NC(=O)[C@H](CCC(N)=O)NC(=O)[C@H](CCCNC(=N)N)NC(=O)[C@H](CCCNC(=N)N)NC(=O)[C@H](CCCCN)NC(=O)[C@H](CCCCN)NC(=O)[C@H](CCCNC(=N)N)NC(=O)CNC(=O)[C@H](Cc1ccc(O)cc1)NC(=O)CCCC[C@@H]1SC[C@@H]2NC(=O)N[C@@H]21)C(=O)N[C@H](C(=O)O)C(C)C` [Peptide 1845] (Biotin-YGRKKRRQRRRARGDRYRIV-OH), for which the concentration for a half-maximal effect (EC50) at ZO-1 d2 [2] and at INADL d3 was less than 100 nM throughout.

On to `CC(C)[C@H](NC(=O)[C@H](Cc1ccc(O)cc1)NC(=O)[C@H](Cc1ccc(O)cc1)NC(=O)[C@H](CCC(=O)O)NC(=O)[C@H](CCCCN)NC(=O)[C@H](CC(=O)O)NC(=O)[C@H](CCCCN)NC(=O)[C@H](CC(N)=O)NC(=O)[C@H](CCCCN)NC(=O)[C@H](CCCNC(=N)N)NC(=O)[C@H](CCCNC(=N)N)NC(=O)[C@H](CCCNC(=N)N)NC(=O)[C@H](CCC(N)=O)NC(=O)[C@H](CCCNC(=N)N)NC(=O)[C@H](CCCNC(=N)N)NC(=O)[C@H](CCCCN)NC(=O)[C@H](CCCCN)NC(=O)[C@H](CCCNC(=N)N)NC(=O)CNC(=O)[C@H](Cc1ccc(O)cc1)NC(=O)CCCC[C@@H]1SC[C@@H]2NC(=O)N[C@@H]21)C(=O)O` [Peptide 1852] (Biotin-YGRKKRRQRRRKNKDKEYYV-OH), for which the EC50 on ZO-1 d2 [2] and at INADL d3 was less than 20 nM throughout.

In general, EC50 refers to the concentration needed to bring the measured effect to its halfway point. Low readings indicate greater potency, high ones weaker potency.
